Measured values reported in patent US10400263B2, “Tripeptide rhodamine compound” (Kingston Uninversity Higher Education Corporation, priority 2012, dated 2019).

Legend:
MSSA = experiment: LGX staphylocoagulase fluorescence assay, MSSA isolates; assay type: cell-based, Staphylococcus aureus
Procedure: (§1) Each sample was rinsed liberally in sterile 1×PBS and varying concentrations of bacterial suspension from 10^0-10^6 were generated by serial dilution in 1×PBS. Additionally, bacterial cultures were furthermore maintained on nutrient agar to assess the coagulase status of the isolate.
(§2) To determine the effects of varying bacterial concentrations with respect to bacterial strains and concentrations of the compounds according to the present invention on staphylocoagulase activity, 100 and 50 μM solutions containing LGX were prepared in 1×PBS with the addition of 0.05 M Tris Buffer and 0.1 M NaCl to maintain a pH of 8.5 using LGX dissolved in MeOH so that final concentration of methanol was no more than 2.5%. Furthermore, an appropriate concentration (100 μM and 50 μM, respectively) of human prothrombin was added to the solution.
(§3) The plate reader used was a Fluostar Optima, and the plates used were Nunclon Surface 96 well plates. Positive controls for each experiment was a strain of MRSA, and the negative control for each experiment was a strain of E. coli, both of which were picked at random to ensure there was no bias within the data. A 1:1 ratio of the LGX solution with PBS was also assayed as “LGX alone” sample, which has been designated as a black line on the graphs below. n=3 cultures were assayed in each case.
(§4) Clinical isolates of Methicillin Resistant Staphylococcus Aureus (MRSA), Methicillin Sensitive Staphylococcus Aureus (MSSA), Staphylococcus Epidermidis, Eschericia coli and other staphyloccal species were cultured on nutrient agar prior to being grown overnight in nutrient broth under shaking conditions at 37° C. Each sample was rinsed liberally in sterile 1×PBS and varying concentrations of bacterial suspension from […] were generated by serial dilution in 1×PBS. Additionally, bacterial cultures were furthermore maintained on nutrient agar to assess the coagulase status of the isolate.
(§5) To determine the effects of varying bacterial concentrations with respect to bacterial strains and LGX concentrations on staphylocoagulase activity, 100 and 50 μM solutions of LGX were prepared in 1×PBS with the addition of 0.05 M Tris Buffer and 0.1 M NaCl to maintain a pH of 8.5 using LGX dissolved in MeOH so that final concentration of methanol was no more than 2.5%. Furthermore, an appropriate concentration (100 μM and 50 μM, respectively) of human prothrombin was added to the solution. 90 μl of LGX solution in addition to each respective bacterial isolate at varying concentrations was added to a microtitre plate. […] The plate reader used was a Fluostar Optima, and the plates used were Nunclon Surface 96 well plates.

E. coli = experiment: LGX staphylocoagulase fluorescence assay, E. coli strains; assay type: cell-based; conditions: for fluorescence over the 6 hour time period: high and low concentrations
Procedure: as §1, §2, §3, §4, §5

[1] = test system: coagulase negative staphylococci; experiment: LGX staphylocoagulase fluorescence assay, coagulase negative staphylococci panel; assay type: cell-based
Procedure: as §1, §2, §3

S. warneri = experiment: LGX system, S. warneri; assay type: cell-based
Procedure: as §1
as §2, with “Furthermore, an appropriate concentration (100 μM and 50 μM, respectively) of human prothrombin was added to the solution.” left out
(§6) The plate reader used was a Fluostar Optima, and the plates used were Nunclon Surface 96 well plates. […]
(§7) To determine the effects of varying bacterial concentrations with respect to bacterial strains and LGX concentrations on staphylocoagulase activity, 100 and 50 μM solutions of LGX were prepared in 1×PBS with the addition of 0.05 M Tris Buffer and 0.1 M NaCl to maintain a pH of 8.5 using LGX dissolved in MeOH so that final concentration of methanol was no more than 2.5%. […] The plate reader used was a Fluostar Optima, and the plates used were Nunclon Surface 96 well plates.

M. luteus = experiment: LGX system, M. luteus; assay type: cell-based
Procedure: as §1
as §2, with “Furthermore, an appropriate concentration (100 μM and 50 μM, respectively) of human prothrombin was added to the solution.” left out
as §6, §7

S. hominus = experiment: LGX system, S. hominus; assay type: cell-based
Procedure: as §1
as §2, with “Furthermore, an appropriate concentration (100 μM and 50 μM, respectively) of human prothrombin was added to the solution.” left out
as §6, §7

S. aureus = experiment: LGX test on volunteers' nasal swabs with prothrombin or prethrombin; assay type: cell-based, Staphylococcus aureus; conditions: for samples tested positive for S. aureus: threshold 20,000 RFU
Procedure: A population of 113 volunteers were administered a “set” of swabs, comprising two swabs that were pre-moistened with sterile H2O, and one swab that was dry. Each volunteer swabbed the internal periphery of each nostril with the two moistened swabs. Each volunteer then subsequently swabbed the internal periphery of each nostril with the dry swab. The swabs were then placed into amies transport medium to maintain bacterial cell viability. Each sample was anonymous and the study was randomised.
A 100 μL solution of 100 μM LGX with either 1×prothrombin or 1×prethrombin (buffered to pH 8.5 with Tris base and NaCl), was pipetted into sterile 1.5 mL eppendorf tubes. Each moistened swab was placed into the eppendorf tube, and cut to a length to facilitate closure of the tube, with a pair of sterilised scissors. Each tube was subjected to vigorous agitation and the swab tips were removed with sterile forceps. The remaining solution was subsequently pipetted into a microtitre plate (Nunclon 96 well plates). The relative fluorescence of the sample was then recorded every fifteen minutes over a six hour time period (λex.=488 nm and λem=525 nm).
In tandem with this, the remaining swabs (in amies transport medium) were transferred onto pre warmed mannitol salt agar (chromogenic agar for the determination of S. aureus) plates and incubated for up to 48 hours at 37° C. The colour change and colony appearance of the bacteria was noted. […] Following this, 20 separate, discrete colonies were sub-cultured onto nutrient agar and also onto Baird Parker Agar (agar for the determination of S. aureus and S. epidermidis). After an overnight culture at 37° C., colony morphology and appearance was observed (S. aureus colonies are large with a pale “halo” surrounding the colonies, S. epidermidis colonies are small and black).
Additionally, isolates from the nasal swabs cultured on nutrient agar were tested for coagulase activity using a staphylase test kit (oxoid). Loopfuls of bacteria were assayed based on coagulase mediated clumping of fibrinogen-sensitised ovine blood cells.
A final test to determine the identification of the bacteria within each sample, a gram stain was performed. This is based on the presence of peptidoglycan in gram positive cells and their ability to retain crystal violet. S. aureus is a gram positive bacterium. Briefly, a drop of sterile dH2O was placed on a microscope slide and a small amount of culture was applied to this and allowed to air dry. The slide was passed though a flame to fix the bacteria. Crystal Violet was applied to each slide, followed by washing with dH2O. Iodine was then added to the slides, followed by washing with dH2O and subsequent decolourisation with ethanol and another wash with dH2O. Each slide was counterstained with carbol fushchin (for gram negative), rinsed again and allowed to dry.
Each swab sample was examined for the presence of S. aureus based on the above identification techniques, and termed “positive” or “negative”. The results were compared to the finding of the assay of the current invention (LGX test), with either prethrombin or prothrombin, and plotted on a bar chart as a function of relative fluorescence units.

**Q.** How did the “samples reaching maximum fluorescence” value (MSSA; 50 μM LGX, MSSA 10^2, 6 hours) turn out when `CC(C)[C@H](NC(=O)OC(C)(C)C)C(=O)N1CCC[C@H]1C(=O)N[C@@H](CCCNC(=N)N)C(=O)Nc1ccc2c(c1)Oc1cc(NC(=O)[C@H](CCCNC(=N)N)NC(=O)[C@@H]3CCCN3C(=O)[C@@H](NC(=O)OC(C)(C)C)C(C)C)ccc1C21OC(=O)c2ccccc21` (stereo partly drawn) [LGX, Rho-(Arg-Pro-Val-NHBoc)2] was run?
**A.** no samples reached maximum fluorescence

**Q.** What about the “samples reaching the maximum reading of 65,000 RFU within 2.5 hours” value (MSSA; 50 μM LGX, MSSA 10^3) of the same compound?
**A.** 25%

**Q.** And the “samples that had reached maximum fluorescence within 6 hours” value (MSSA; 50 μM LGX, MSSA 10^3)?
**A.** 60%

**Q.** And the “samples failed to reach maximum fluorescence within 6 hours” value (MSSA; 50 μM LGX, MSSA 10^5)?
**A.** 5%

**Q.** What about the “samples reaching the maximum reading of 65,000 RFU within 2 hours” value (MSSA; 50 μM LGX, MSSA 10^5) of the same compound?
**A.** 75%

**Q.** What about the “time by which maximum fluorescence level was reached” value (MSSA; 50 μM LGX, MSSA 10^6) of the same compound?
**A.** ≤ 2 h

**Q.** What about the “samples achieving a fluorescence reading of 20,000 within 1 hour” value (MSSA; 100 μM LGX, MSSA 10^2) of the same compound?
**A.** 90%

**Q.** What about the “samples reached maximum fluorescence over a 6 hour time period” value (MSSA; 100 μM LGX, MSSA 10^2) of the same compound?
**A.** 25%

**Q.** And the “samples reached maximum fluorescence within 2 hours” value (MSSA; 100 μM LGX, MSSA 10^2)?
**A.** 5%

**Q.** And the “samples reached maximum fluorescence within 4 hours” value (MSSA; 100 μM LGX, MSSA 10^3)?
**A.** 45%

**Q.** What about the “samples in which fluorescence reached its upper limits within 1 hours” value (MSSA; 100 μM LGX, MSSA 10^4) of the same compound?
**A.** 70%

**Q.** And the “samples remained below maximum fluorescence” value (MSSA; 100 μM LGX, MSSA 10^4)?
**A.** 20%

**Q.** What about the “LGX SYSTEM” value (MSSA; MSSA) of the same compound?
**A.** +

**Q.** And the “fluorescence over the duration of the experiment” value (E. coli; 50 μM LGX, E. coli strains 10^6, 10^5, 10^3 and 10^2, FIG. 6)?
**A.** remain consistently low

**Q.** And the “fluorescence over the 6 hour time period” value (E. coli; 50 μM LGX, E. coli, FIG. 13)?
**A.** no increase in fluorescence was observed

**Q.** What about the “samples above 20,000 fluorescence units after 1 hour” value (E. coli; 50 μM LGX, all concentrations of bacteria, E. coli) of the same compound?
**A.** 0%

**Q.** What about the “fluorescence response within 1 hour” value (E. coli; 50 μM or 100 μM LGX, E. coli) of the same compound?
**A.** ≤ 5000 fluorescence units

**Q.** What about the “fluorescence across the 6 hour time period” value (E. coli; 100 μM LGX, E. coli strains, FIG. 7) of the same compound?
**A.** remained consistently low

**Q.** What about the “fluorescence over the 6 hour time period” value (E. coli; 100 μM LGX, E. coli, FIG. 14) of the same compound?
**A.** no increase in fluorescence was observed

**Q.** And the “LGX SYSTEM” value (E. coli; E. COLI)?
**A.** −

**Q.** And the “samples above 20,000 fluorescence units after 1 hour” value ([1]; 50 μM LGX, all concentrations of bacteria, coagulase negative staphylocci)?
**A.** 0%

**Q.** What about the “fluorescence over the duration of the experiment” value ([1]; 50 μM LGX, coagulase negative strains 10^6, 10^5, 10^3 and 10^2, FIG. 8) of the same compound?
**A.** remain consistently low

**Q.** And the “fluorescence response within 1 hour” value ([1]; 50 μM or 100 μM LGX, coagulase negative staphylococci)?
**A.** ≤ 5000 fluorescence units

**Q.** And the “fluorescence across the 6 hour time period” value ([1]; 100 μM LGX, coagulase negative strains, FIG. 9)?
**A.** remained consistently low

**Q.** What about the “LGX SYSTEM” value (S. warneri) of the same compound?
**A.** −

**Q.** What about the “LGX SYSTEM” value (M. luteus) of the same compound?
**A.** −

**Q.** And the “coagulase result with LGX system” value (M. luteus)?
**A.** negative

**Q.** And the “LGX SYSTEM” value (S. hominus)?
**A.** −

**Q.** And the “time in which S. aureus was efficiently detected” value (S. aureus; 100 μM LGX with 1×prethrombin)?
**A.** 15 min

**Q.** What about the “samples tested positive for S. aureus” value (S. aureus; 100 μM LGX with 1×prethrombin, 15 minutes) of the same compound?
**A.** approximately 49 samples

**Q.** What about the “samples tested positive for S. aureus” value (S. aureus; 100 μM LGX with 1×prethrombin, 60 minutes) of the same compound?
**A.** approximately 49 samples

**Q.** And the “time in which S. aureus was efficiently detected” value (S. aureus; 100 μM LGX with 1×prothrombin)?
**A.** 15 min

**Q.** What about the “samples tested positive for S. aureus” value (S. aureus; 100 μM LGX with 1×prothrombin, 15 minutes, 113 volunteers) of the same compound?
**A.** approximately 29 samples

**Q.** And the “samples tested positive for S. aureus” value (S. aureus; 100 μM LGX with 1×prothrombin, 60 minutes)?
**A.** approximately 34 samples
